Source: patent US9260375B2, “Metallo-β-lactamase inhibitors” (priority 2005, dated 2016)

Assays:
[1] = system: IMP-1 producing Pseudomonas aeruginosa strain PAO1/pMS363; type: cell-based; details: no inhibitor, in µg/mL
Excerpt: IMP-1 producing Pseudomonas aeruginosa strain PAO1/pMS363 (FEMS Microbiology Letters 1994, 121, 175) was used for evaluating the inhibitory effect of maleic acid derivatives on the resistance against carbapenem by the metallo-β-lactamase in bacteria.

IMP-1 = target: T1, IMP-1 (Serratia marcescens, UniProt P52699); experiment: biochemical; details: nitrocefin 100 μM, IMP-1 1 nM, ZnSO4 100 μM, 50 mM HEPES pH 7.5, room temperature 20 min; read-out: IC50 of each inhibitor against IMP-1
T1 construct: The total length of IMP-1 as a metallo-β-lactamase was amplified by PCR; His tag (C); made in house; host or cells: E. coli DH5α, pTrcHis2 TOPO vector, periplasmic fraction
T1 sequence (P52699 19-246 limits assumed): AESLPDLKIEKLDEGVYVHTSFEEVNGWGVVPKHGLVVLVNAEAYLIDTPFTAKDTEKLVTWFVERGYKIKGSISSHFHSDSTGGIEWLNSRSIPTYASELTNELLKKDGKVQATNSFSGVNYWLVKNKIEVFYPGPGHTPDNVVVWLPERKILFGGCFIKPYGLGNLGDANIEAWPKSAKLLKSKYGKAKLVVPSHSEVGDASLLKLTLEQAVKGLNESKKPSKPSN
Experimental: (§1) The PCR product was integrated into pTrcHis2 TOPO vector (Invitrogen), and then introduced into E. coli DH5α (TOYOBO) for culture under the induction of 0.5 mM Isopropyl-β-D-(−)-thiogalactopyranoside (Wako) at 37° C. for 3 h to express IMP-1. After recovering the bacterial cells, the periplasmic fraction was extracted by ocmotic shock with sucrose to refine the IMP-1 by Ni-NTA Slurry (QIAGEN) with the His tag at the C-terminus.
(§2) In order to determine the inhibitory activity of metallo-β-lactamase, a 50 mM HEPES (pH 7.5) buffer (referred to hereinafter as “buffer”) was used, and nitrocefin (Oxoid) with the final concentration of 100 μM was used as a substrate. A test drug (material to be tested: compound having an Example Number shown in Table 2) was added to each well of a 96-well plate, into which nitrocefin was added and mixed. Then, IMP-1 or VIM-2 was added to each well in the final concentration of 1 nM or 1.5 nM, respectively to react the mixture at room temperature for 20 min. In this case, ZnSO4 was added in the final concentration of 100 μM in order to exclude the inhibitory effect by the chelate effect. Enzyme inhibiting activity was determined by measuring the hydrolysis activity of nitrocefin at a wave length of 490 nm with ARVOsx microplate reader (Wallac).

VIM-2 = target: T2, VIM-2 (UniProt Q5U7L7); experiment: biochemical; details: nitrocefin 100 μM, VIM-2 1.5 nM, ZnSO4 100 μM, 50 mM HEPES pH 7.5, room temperature 20 min; read-out: IC50 of each inhibitor against VIM-2
T2 construct: His tag (C); made in house; host or cells: E. coli DH5α
Experimental: as §1, §2

IC50 (IMP-1) [nM] | IC50 (VIM-2) [nM] | Structure (SMILES) | MIC of β-lactam drugs, β-lactam alone [1]
– | – | C[C@@H](O)[C@H]1C(=O)N2C(C(=O)[O-])=C(SC3Cn4cnc[n+]4C3)[C@H](C)[C@H]12 (stereo partly shown) [BIPM, biapenem] | 64-128
– | – | C[C@@H](O)[C@H]1C(=O)N2C(C(=O)O)=C(S[C@H]3C[C@@H](C(=O)N4CC[C@H](NC(=O)CNC(=N)N)C4)N(C)C3)[C@H](C)[C@H]12 [CS-023, (−)-(4R,5S,6S)-3-[[(3S,5S)-5-[(S)-3-(2-guanidinoacetylamino)pyrrolidin-1-ylcarbonyl]-1-methylpyrrolidin-3-yl]thio]-6-[(R)-1-hydroxyethyl]-4-methyl-7-oxo-azabicyclo[3.2.0]hept-2-ene-2-carboxylic acid] | 256
2800 | 5300 | CC(C)/C(C(=O)O)=C(\Cc1cccnc1)C(=O)O [Example 54, 2-Isopropyl-3-[(pyridine-3-yl)methyl]maleic acid disodium] | –
– | – | C[C@@H](O)[C@H]1C(=O)N2C(C(=O)O)=C(SCCN=CN)C[C@H]12 [IPM, imipenem] | 128-256
2400 | 7300 | C/C(C(=O)O)=C(/C(=O)O)C(C)C [Example 22, 2-isopropyl-3-methylmaleic acid disodium] | –
– | – | CC(C)(O/N=C(\C(=O)N[C@@H]1C(=O)N2C(C(=O)[O-])=C(C[n+]3ccccc3)CS[C@H]12)c1csc(N)n1)C(=O)O [CAZ, ceftadizime] | 2048
190 | 160 | CC(C)/C(C(=O)O)=C(/C(=O)O)C1CCCCC1 [Example 43, 2-Cyclohexyl-3-isopropylmaleic acid disodium] | –
– | – | CO/N=C(\C(=O)N[C@@H]1C(=O)N2C(C(=O)O)=C(CSc3nc(=O)c(=O)[nH]n3C)CS[C@H]12)c1csc(N)n1 [CTRX, ceftriaxone] | 4096
1200 | 14000 | CC/C(C(=O)O)=C(\SC(C)C)C(=O)O [Example 66, 3-Ethyl-2-isopropylthiomaleic acid disodium] | –
1900 | 1800 | CC(C)/C(C(=O)O)=C(/C(=O)O)C1CCOCC1 [Example 51, 3-Isopropyl-2-(tetrahydropyran-4-yl)maleic acid disodium] | –
980 | 300 | CC(C)/C(C(=O)O)=C(\Cc1ccc(OCCN)cc1)C(=O)O [Example 92, 2-[4-(2-aminoethoxy)benzyl]-3-isopropylmaleic acid disodium] | –
– | – | C[C@@H](O)[C@H]1C(=O)N2C(C(=O)O)=C(S[C@@H]3CN[C@H](CNS(N)(=O)=O)C3)[C@H](C)[C@H]12 [DRPM, doripenem] | 128
– | – | CO/N=C(\C(=O)N[C@@H]1C(=O)N2C(C(=O)[O-])=C(C[N+]3(C)CCCC3)CS[C@H]12)c1csc(N)n1 [CFPM, cefepime] | 2048
1400 | 600 | CC(C)/C(C(=O)O)=C(\Cc1ccc(C(N)=O)cc1)C(=O)O [Example 72, 2-(4-Carbamoylbenzyl)-3-isopropylmaleic acid disodium] | –
560 | 1900 | CC(C)/C(C(=O)O)=C(\Cc1ccc(O)cc1)C(=O)O [Example 86, 2-(4-Oxidobenzyl)-3-isopropylmaleic acid trisodium] | –
290 | 3000 | CC/C(C(=O)O)=C(\Cc1ccccc1)C(=O)O [Example 11, 2-benzyl-3-ethylmaleic acid disodium] | –
